Data as given in US11337420B2, “Cryopreservation of juvenile stages of barnacles” (Planktonic AS, priority 2016, dated 2022).
Read-outs that look alike come from different tables or passages of the source.

Tests used:
[1] = system: Barnacle nauplii stage I and II from Semibalanus balanoides; experiment: Cryopreservation, thawing and revitalization of nauplii, viability check (different cryoprotectants, volume ratios, equilibrium periods); type: in vivo
Method: (§1) Barnacle nauplii (Semibalanus balanoides or Balanus crenatus) were drained and concentrated (10% dry weight) and mixed 1:1 with a cryoprotectant (on ice). The mixture was filled, sealed and equilibrated in a pouch (600 gram consisting of 300 ml cryoprotectant and 300 ml barnacles) for 30 minutes at 5 ° C. before transferring to a controlled freezer. The pouch was put in an aluminum rack, and temperature loggers were put inside the pouch and in the freezer to measure air temperature. Alternatively smaller amount of about 60 g or vials were used in the tests.
(§2) After freezing from 5 to −42 ° C., with a duration of >12 hours using the disclosed method, the pouches were soaked in liquid nitrogen until −196 ° C. were homogenously achieved inside the pouches. The pouches were transferred to cryocontainers (with liquid nitrogen) of 175 liters, and stored for more than 48 hours. To check viability, the pouches were removed from the cryocontainer, crushed to get out the content and thawed in cold seawater (less than 5 ° C.). After 15 minutes, the thawed nauplii were washed on a 100 μm filter to remove the cryoprotectant. Revitalization was performed for >8 hours in an aerated tank with 30 PSU seawater (start temperature 2.5 ° C.).
Barnacle nauplii stage I and II from Semibalanus balanoides were treated with a 6 molar solution of dimethyl sulfoxide (DMSO) as cryoprotectant and 1:1 mixing between cryoprotectant and organisms. Equilibrium was performed for 30 minutes at 3 to 5° C.
Samples of these organisms were cryopreserved in a volume ratio of A) 30% cryoprotectant to 70% organisms (volume/volume) and B) 40% cryoprotectant to 60% organisms (volume/volume). The control was C) 50% cryoprotectant to 50% organisms (volume/volume). All tests were carried out in triplicate.
(1:1 volume ratio with organisms). Thereafter the organisms were cryopreserved by the disclosed method, stored in liquid nitrogen for 48 hours, thawed and revitalized. The barnacle nauplii were analyzed for their vitality using a binocular microscope.

nauplii = settings: salt in the cryoprotectant solution compared to no salt addition
Excerpt: The final salt concentration of NaCl is thereby preferably between 2.0 to 4.5%, more preferably between 3.0 to 3.8%, most preferred between 3.2 and 3.8%.

[2] = system: Barnacle nauplii stage I and II of Semibalanus balanoides
Method: Samples were taken out after 0, 1, 2, 4, 8, 12, and 24 hours and the cryoprotectant was washed out to check viability of the nauplii. Levels of viability were identified as 0, 1, 2, 3, 4 and 5. “0” represents no activity (dead nauplii), 1-3 are twitching of appendages less than pre-cryopreserved nauplii, but 3 are close to natural swimming. 4 are swimming as pre-cryopreserved nauplii, and 5 are over-stimulated nauplii.

[3] = system: nauplii of Balanus amphitrite; settings: 3 to 4 M, equilibration time up to 2 h; cited from earlier work
[4] = for content of ethylene glycol in drained barnacle nauplii: revitalization in 30 liters of seawater
Excerpt: Immediately after thawing, the nauplii was drained for water and frozen again.
A small piece of frozen material was taken on a filter, and rinsed until it was thawed, and thereafter frozen and analyzed. […] When revitalized, the barnacle nauplii were drained again for seawater, and added 30 liters of seawater.

[5] = system: Barnacle nauplii stage I and II from Semibalanus balanoides or Balanus crenatus; settings: 7.2 molar solution, 1:1 mixing between cryoprotectant and organisms
Method: as §1, §2

aquatic organisms = aquatic organisms in general; cited from earlier work
[6] = 600 gram sample in 15 liter seawater, after 15 minutes

## C[S+](C)[O-] [DMSO, dimethyl sulfoxide]
[1]; 6 molar solution, 1:1 mixing, equilibrium 30 minutes at 3 to 5° C.
  viability after thawing: comparable to barnacle nauplii exposed to ethylene glycol

## [Cl-].[Na+] [NaCl]
nauplii
  revitalization of nauplii: improve the revitalization of nauplii compared to no salt addition

## OCCO [ethylene glycol]
[2]; 7.2 molar ethylene glycol stock solution, on ice, even after 24 hour of exposure
  individuals showing relatively good swimming behavior: 80-90%
[2]; 7.2 molar ethylene glycol stock solution, on ice, even after 24 hour of exposure, cryoprotectant washed out
  level of viability of recovered nauplii: 2-3
[2]; equilibrium period of 24 hours with 7.2 M (stock solution) ice cold
  harm to nauplii in toxicity test: does not considerably harm barnacle nauplii
[3]
  damage to nauplii: did not cause damage
[4]; 7.2 molar solution added to drained material
  equilibration of cryoprotectant with the organisms: < 15%
[4]; [6]
  content as share of the added ethylene glycol: < 2%
  ethylene glycol concentration in nauplii: about 0.1 M
[4]; after one hour
  content of ethylene glycol in drained barnacle nauplii: < 25 ppm
[4]; after two hours, detection level
  content of ethylene glycol in drained barnacle nauplii: < 10 ppm
[4]; second step: drained, 15 liter of seawater added for washing
  ethylene glycol concentration inside the organisms: < 300 ppm
[4]; time zero sample, rinsed until thawed, 7.2 M, volume ratio 1:1
  ethylene glycol content in nauplii: 7400-11000 ppm
[5]
  nauplii with natural swimming activity (level 4) after thawing: > 50%
  swimming activity level of the remaining nauplii after thawing: 1-3
[1]; 30%, 40% or 50% cryoprotectant to 70%, 60% or 50% organisms (volume/volume), triplicate
  viability, difference between volume ratios: no significant between the treatments in terms of viability
[1]; incubated 0, 15, 30, 60 minutes in 7.2 M at 5 ° C., 1:1 volume ratio
  vitality, difference between equilibrium periods: No significant differences in vitality
[1]; incubated 90 minutes in 7.2 M at 5 ° C., 1:1 volume ratio
  vitality after equilibrium period: less vital organisms than the other treatments
Aquatic organisms
  level regarded as non-toxic: ≤ 100 ppm

## CC(O)CO (centres unmarked) [propylene glycol]
[1]; 40% by volume mixed with 60% by volume seawater, volume ratio 1:1
  percentage of viable nauplii after thawing: minimal compared to ethylene glycol
